{"source": "patent US10314847B2", "about": "“Scalarane sesterterpenoid, pharmaceutical composition and topoisomerase II and Hsp90 inhibitor for treating cancer, and use and preparation method thereof” (NATIONAL DONG HWA UNIVERSITY, priority 2017, dated 2019)", "key": {"[1]": {"system": "apoptosis-related proteins", "test": "Western blot of apoptosis-related proteins", "format": "cell-based, human", "details": "Molt 4 cells, time-dependent", "protocol": "(§1) Oxidative stress is manifested by ROS overexpression and cannot be balanced by the available antioxidant machinery. Compound 1 of the present invention can damage the integrity of mitochondria, which are the major production sites of the superoxide anion, […]. The induction of the intracellular formation of ROS by compound 1 was determined with a carboxyl derivative of fluorescein, carboxy-H2DCFDA dye using flow cytometric analysis. […] In addition, ROS generation could induce ER stress leading to mitochondria-related apoptosis. To further investigate if ER stress is involved in the apoptotic effect induced by compound 1, Western blot analysis was used to determine the expression of ER stress-related proteins. […] Furthermore, the effect of compound 1 on the release of intracellular Ca^2+, was evaluated using fluorescent calcium indicator, Fluo 3. […] In FIG. 4(D), the induction of the typical executor caspases-3 and -7, and γH2AX, was also observed using Western blot analysis. To confirm the induction of DNA damage by compound 1 in Molt 4 cells, a comet assay under neutral electrophoresis condition was utilized. Thus, the effect of compound 1 (0.0625 μg/mL) at different time intervals (0, 3, 6 and 9 hours) on the level of nuclear DNA integrity was determined. […]"}, "Molt 4 cells [2]": {"system": "Molt 4 cells", "test": "JC-1 staining, mitochondrial membrane potential disruption", "format": "cell-based, human", "details": "Molt 4 cells, 0.0625, 0.125 and 0.25 μg/mL, 24 hours, dose-dependent", "protocol": "Determination of Reactive Oxygen Species (ROS) Generation, Calcium Accumulation, and Matrix Metalloproteinase (MMP) Disruption:\nMMP disruption, calcium accumulation and ROS generation were detected with the JC-1 cationic dye (5 μg/mL), the fluorescent calcium indicator (Fluo 3, […]) and the carboxy derivative of fluorescein (carboxy-H2DCFDA, […]), respectively. In brief, the treated cells were labeled with a specific fluorescent dye for 30 minutes. After labeling, cells were washed with PBS and resuspended in PBS at a concentration of 1×10^6 cells/mL before analysis via flow cytometry."}, "Hsp70": {"system": "Hsp70", "test": "Immunofluorescence analysis of Hsp70 localization", "format": "cell-based, human", "details": "Molt 4 cells, confocal microscope", "protocol": "Immunofluorescence Analysis:\nAfter treatment with the tested compound, cells were fixed with 4% paraformaldehyde in 50 mM HEPES buffer (pH 7.3) for 30 minutes, and permeabilized for 20 minutes with 0.2% Trition X-100 in PBS (pH 7.4). To prevent non-specific protein binding, cells were incubated with 5% BSA in PBS containing 0.05% Trition X-100 (T-PBS) for 1 hour at room temperature. Cells were then incubated with the primary Hsp70 antibodies (1:500) for 2 hours and further with secondary antibodies (Alexa Fluor […] goat anti-mouse IgG (H+L) (Life Technologies, Carlsbad, Calif., U.S.A.)) diluted at 1:1000 for 1 hour at room temperature. After washing with PBS, cells were observed under a FV1000 confocal laser scanning microscope (Olympus, Tokyo, Japan).\nThe induction of Hsp70 is the biomarker of Hsp90 with N-terminal inhibition. Aiming to understand the relation between Hsp90 function and the expression of Hsp70 and 90 clients, Molt 4 cells were treated with compound 1 (0.0625 μg/mL) for different time intervals. […] Furthermore, as shown in FIG. 5(B), Hsp90 client proteins were suppressed, including p70^S6K, NFκB, Raf-1, p-GSK3β, MEK 1 and XIAP ([…] protein), MDM 2 and Rb2 (oncoprotein), and CDK4 (cell cycle regulatory protein), HIF 1 and HSF1 (transcription factor). […]"}, "[3]": {"system": "ER stress-related proteins", "test": "Western blot of ER stress-related proteins", "format": "cell-based, human", "details": "Molt 4 cells, time-dependent", "protocol": "as §1"}, "U937": {"system": "U937", "test": "MTT assay, cytotoxic effect on U937", "format": "cell-based", "details": "Homo sapiens, U-937; U937, molar value in text", "excerpt": "The cell lines were obtained from the American Type Culture Collection (ATCC, Manassas, Va., U.S.A.) or the Japanese Collection of Research Biosources (JCRB) Cell Bank (Japan). […] Antibodies against XIAP, NFκB (p65), GADD, CDK 4, HSF 1, ATF 6 and β-tubulin were obtained from Santa Cruz Biotechnology (Santa Cruz, Calif., U.S.A.). The Hybond ECL transfer membrane and ECL Western blotting detection kits were obtained from Amersham Life Sciences (Amersham, U.K.).\nSeveral cancer cell lines including leukemia K562, Molt 4, and HL 60 cells, prostate cancer LNCaP cells, colon cancer DLD-1 cells and breast cancer T-47D cells were used to evaluate the antiproliferative activity (referring to Table 2)."}, "Molt 4 cells [4]": {"system": "Molt 4 cells", "test": "Neutral comet assay for DNA double-strand breaks", "format": "cell-based, human", "details": "0.0625 μg/mL, 0, 3, 6 and 9 hours", "protocol": "Neutral Comet Assay for Detection of DNA Double-Strand Breaks (DSBs):\nThe assay was carried out using a CometAssay™ Kit (Trevigen, Gaithersburg, Md., U.S.A.) following the manufacturer's protocol for the neutral Comet assay. Briefly, cancer cells (2×10^5 cells/mL) were treated with compound 1 (0.0625 μg/mL) at the indicated time. Cells were combined with 1% low melting point agarose at a ratio of 1:10 (v/v) and immediately 75 μL of the mixture was pipetted onto CometSlide™ and allowed to set at 4° C. in the dark. The slides were immersed in an ice-cold lysis solution (Trevigen) for 30 to 60 minutes. […] The fluorescence images were analyzed using the TriTek Comet Image program to circumscribe the “head” and the “tail” regions of each comet and the integrated fluorescence values of each defined area were recorded. The comet length was measured from the trailing edge of the nucleus to the leading edge of the tail. […] The results were expressed as mean±standard deviation (SD) (*p<0.05).\nOxidative stress is manifested by ROS overexpression and cannot be balanced by the available antioxidant machinery. […] The induction of the intracellular formation of ROS by compound 1 was determined with a carboxyl derivative of fluorescein, carboxy-H2DCFDA dye using flow cytometric analysis. […]"}}}
{"smiles": "CC[C@@]1(C)CCC[C@]2(C)[C@H]3C[C@@H](OC(=O)C[C@@H](C)O)[C@]4(C)[C@@H](C=O)C(C(C)=O)=CC[C@H]4[C@]3(C)CC[C@@H]12", "note": "(relative stereo) [Compound 1, 12β-(3′β-hydroxybutanoyloxy)-20,24-dimethyl-24-oxo-scalara-16-en-25-al]", "values": [{"measurement": "Cleavage of apoptosis-related proteins", "setting": "[1]", "result": "PARP, caspases-8 and -9 cleavages were significantly increased in a time-dependent manner"}, {"measurement": "Mitochondrial membrane potential (JC-1)", "setting": "Molt 4 cells [2]", "result": "disruption in mitochondrial membrane potential"}, {"measurement": "Localization of Hsp70", "setting": "Hsp70", "result": "predominantly accumulated in cytosol"}, {"measurement": "Expression of ER stress-related proteins", "setting": "[3]", "result": "promoted the levels of Bip, Chop, Grp 94 and the activation and cleavage of ATF 6 but suppressed the levels of PERK and IRE 1"}, {"measurement": "Cytotoxic effect IC50, Cal-27", "setting": "Cal-27", "result": 0.56, "unit": "µg/mL"}, {"measurement": "IC50", "setting": "U937", "result": 2.08, "unit": "nM"}, {"measurement": "DNA migration (comet tail, DSBs)", "setting": "Molt 4 cells [4]", "result": "increased the degree of DNA migration"}]}
